Data set [1] relates to Caco-2 cell monolayers. Nature of the data set: TEER measurement of Caco-2 monolayer. As to conditions: 37 °C, N=3. In kind it is cell-based, human. As for the experimental part: In preparation for the assays, the cell membranes were allowed to equilibrate for 30 min in transport buffer; HBSS (pH 7.4) with 0.001% MC was added to the apical (0.5 mL) and basal (1.5 mL) chambers of the transwell.
The TEER of the Caco-2 monolayer was measured to confirm cell growth and differentiation on the insert filter of the transwell using a Millicell ERS-2 (Millipore Corp., Bedford, MA, USA). Before seeding the Caco-2 cells, the electrical resistance of the insert filter in the medium was measured and subtracted from the total electrical resistance determined for the monolayer to calculate the intrinsic TEER of the monolayer. The TEER of the monolayer was measured at the end of the 2 h incubation to detect any negative effects of the applied L-tryptophan on the intercellular tight junctions. The TEER is expressed as a percentage calculated by dividing the TEER value (Ω cm^2) at 2 h by the initial value.

A further data set relates to rat ileal segments. Nature of the data set: In situ LDH leakage from rat ileal segments. The format is in vivo. As to conditions: rat ileal loop; insulin 50 IU/kg with L-tryptophan 16 and 32 mM; fluid collected 60 min after administration; N=3; positive control 5% sodium taurodeoxycholate. For orientation: LDH in the medium is a marker of cell lysis.
For data set [2], the system named is Caco-2 cells. The data set can be described thus: In vitro LDH leakage. Particulars: HBSS pH 7.4 with 0.001% MC, 300–2400 μM, 120 min, 37 °C, relative to 0.8% Triton X-100, N=3. The format is cell-based, human.
Method: (§1) To assess the cytotoxic effects of L-tryptophan, the integrity of the cell membrane after treatment with the CPPs was examined by measuring the lactate dehydrogenase (LDH) released from the cytoplasm under both in vitro and in situ conditions.
In the in vitro assay, the Caco-2 cells were grown in 24-well plates with a 1.88 cm^2 culture area (Nippon Becton Dickinson) at the density of 1.0 × 10^5 cells/cm^2 and then grown in completed DMEM for 3 or 4 days. Before the addition of L-tryptophan, cell membranes were allowed to equilibrate in 0.5 mL of assay buffer for 30 min. HBSS containing 0.001% MC (pH 7.4) was added to the wells as the transport buffer. After a 30 min pre-incubation with transport buffer, the assay was initiated by replacing 50 μL of transport buffer with 50 μL of L-tryptophan stock solution (ten times concentration) or transport buffer. […] The incubation buffer was collected and LDH released from the cytoplasm into the incubation buffer was determined using a CytoTox 96 Non-Radioactive Cytotoxicity Assay kit (Promega Corp., Madison, WI, USA). Cytotoxicity was expressed as the percentage calculated by dividing the absorbance of the vehicle (HBSS) or the L-tryptophan-treated sample by that of a sample treated with 0.8% Triton X-100, according to the instructions of assay kit.
The subject of data set [3] is Caco-2 cells. The data set can be described thus: Cell viability assay (WST-8, CCK-8). The format is cell-based, human. Particulars: completed DMEM, 600–2400 μM, 2 h then 3 h with CCK-8, N=6-11.
Method: To examine the cellular viability of Caco-2 cells exposed to L-tryptophan, a WST-8 assay was performed with Cell Counting Kit-8 (CCK-8, Dojindo Laboratories, Kumamoto, Japan). The Caco-2 cells were grown in 96-well plates with a 0.33 cm^2 culture area (Nippon Becton Dickinson) to a density of 3.0 × 10^4 cells/cm^2 and then grown in 100 μL of completed DMEM for 3 or 4 days. In this assay, the completed DMEM was used in place of the incubation buffer to prevent the possible loss of cell viability during total 5 h incubation in HBSS. First, 10 μL of L-tryptophan stock solution (eleven times concentration) or transport buffer was added to 100 μL of completed DMEM and the cells were incubated with various concentrations of L-tryptophan (600–2400 μM) for 2 h. Then, 10 μL of CCK-8 reagent was added to the wells and the cells were incubated for an additional 3 h to allow for the reductive reaction of WST-8. The resulting absorbances of the incubated solution in the wells were read with a microplate reader (Synergy HT, BioTek Instruments Inc.) at a wavelength of 450 nm. In this assay, 0.8% of Triton X-100 was used as a positive control, same as the LDH assay.
In the next data set the target is T1, insulin (Homo sapiens, UniProt P01308).
T1 construct: purchased Wako Pure Chemical Industries, Ltd. (Osaka, Japan)
T1 sequence (P01308 25-54 limits assumed): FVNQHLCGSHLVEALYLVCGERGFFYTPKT
T1 sequence (P01308 90-110 limits assumed): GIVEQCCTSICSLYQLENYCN
The data set can be described thus: SPR-based binding assay on immobilized insulin. As for the experimental part:
Reference surfaces were prepared by amine coupling activation followed by immediate deactivation. […] At the end of each cycle, the surface was regenerated by a 30 s injection of 1 M NaCl. […] Each sensorgram was determined by subtracting nonspecific binding on the surface of the reference flow cell from total binding on the immobilized-insulin surface.

Data set [4] in a line: In vivo oral administration study, blood glucose levels. As to conditions: mice fasted 24 h; oral gavage insulin 50 IU/kg with L-tryptophan 32 mM (100 μL); blood glucose 0-360 min; N=6-8.
Method: Blood glucose levels were measured (One Touch Ultra View, Johnson & Johnson K.K., Tokyo, Japan) by collection of blood (one drop) from a small cut in the tail vein at t = 0 (prior to dosing), 15, 30, 60, 120, 180, 240, 300 and 360 min after administration. Blood glucose levels are depicted as percentage of the initial value in same mouse. Mice were trained with oral dosing and tail cutting at 24 h and 60 min prior to actual drug administration to avoid the unexpected elevation of blood glucose levels during experiments.
A short description of data set [5]: In situ closed ileum loop absorption of dextrans and peptide drugs with or without L-tryptophan. As for the experimental part:
Additional i.p. injections of sodium pentobarbital (12.5 mg/kg) were administered every 1 h to maintain anesthesia. The ileum was exposed following a small midline incision made carefully in the abdomen. Its proximal to ileocecal junction segments (length = 10 cm) were cannulated at both ends using polypropylene tubing and ligated securely to prevent fluid loss. To wash out the intestinal contents, PBS warmed to 37 °C was circulated through the cannula at 5.0 mL/min for 4 min using an infusion pump. The cannulation tubing was removed, the segments were closed tightly and returned carefully to their original location inside the peritoneal cavity. Rats were kept on the board at 37 °C for an additional 30 min to calm biological reactions such as elevated blood glucose levels resulting from the stress imposed by surgery. […] To examine dose dependency, the final concentrations of tryptophan were adjusted to 4, 8, 16 and 32 mM. […]
During the experiment, 0.25 mL blood aliquots were taken from the jugular vein at 0, 5, 10, 15, 30, 60, 120 and 180 min after dosing. […] The plasma concentrations of FDs were measured with a microplate fluorimeter (Synergy HT, BioTek Instruments Inc., Winooski, VT, USA) at excitation and emission wavelengths of 485 and 528 nm, respectively.

The conditions of data set [6]: insulin co-administered with additive at 40 mM; cited from earlier work.
Data set [7] relates to Caco-2 cell monolayers. As to conditions: 9.6 mM (equivalent to 4.2 mg/kg in the animal study) added to transwell; cited from earlier work.
Data set [8] is described as follows: In situ closed ileum loop administration study: insulin co-administered with additives. As to conditions: in situ rat ileal loop; for Effect on the intestinal absorption of insulin (in words): insulin 50 IU/kg co-administered with additive at 32 mM, N=3-8. As for the experimental part:
Additional i.p. injections of sodium pentobarbital (12.5 mg/kg) were administered every 1 h to maintain anesthesia. The ileum was exposed following a small midline incision made carefully in the abdomen. Its proximal to ileocecal junction segments (length = 10 cm) were cannulated at both ends using polypropylene tubing and ligated securely to prevent fluid loss. To wash out the intestinal contents, PBS warmed to 37 °C was circulated through the cannula at 5.0 mL/min for 4 min using an infusion pump. The cannulation tubing was removed, the segments were closed tightly and returned carefully to their original location inside the peritoneal cavity. Rats were kept on the board at 37 °C for an additional 30 min to calm biological reactions such as elevated blood glucose levels resulting from the stress imposed by surgery. […] To examine dose dependency, the final concentrations of tryptophan were adjusted to 4, 8, 16 and 32 mM. In the comparison study with three hydrophobic amino acids or metabolite of L-tryptophan, the final concentrations of L-isoleucine, L-proline, L-phenylalanine and serotonin were 32 mM. In the study examining the synergistic effect of L-arginine and L-tryptophan, the final concentration of L-arginine was fixed at 40 mM.
During the experiment, 0.25 mL blood aliquots were taken from the jugular vein at 0, 5, 10, 15, 30, 60, 120 and 180 min after dosing. The tuberculin syringes (1 mL, Terumo Corp., Tokyo, Japan) were heparinized by the standard procedure of coating the syringe wall with aspirated heparin and then expelling all the heparin. […] The plasma concentrations of FDs were measured with a microplate fluorimeter (Synergy HT, BioTek Instruments Inc., Winooski, VT, USA) at excitation and emission wavelengths of 485 and 528 nm, respectively.

Data set [9] concerns Caco-2 cell monolayers. The data set can be described thus: Transcellular transport assay: insulin permeation through Caco-2 monolayer. Particulars: Caco-2 transwell, apical to basal, insulin 15 μM co-incubated with additive 2.4 or 16 mM, HBSS pH 7.4, 2 h, 37 °C; N=3. Background: Passage across Caco-2 layers is used to estimate intestinal permeability.
Method: For TEER measurement, Caco-2 cells were grown in 12-well transwell plates with a 1.13 cm^2 culture area (collagen-coated polytetrafluoroethylene (PTFE) membrane with 0.4 μm pore size, Corning Inc., Corning, NY, USA). The cells were cultured to a density of 1.0 × 10^5 cells/cm^2. […] The culture medium was changed every second day and the electrical resistance was monitored by the method described below. Each well consisted of apical (top) and basal (bottom) chambers, which were separated by a collagen-coated polytetrafluoroethylene membrane with a pore size of 0.4 μm and a filter area of 1.12 cm^2.
In preparation for the assays, the cell membranes were allowed to equilibrate for 30 min in transport buffer; HBSS (pH 7.4) with 0.001% MC was added to the apical (0.5 mL) and basal (1.5 mL) chambers of the transwell. […] During the incubation, the Caco-2 monolayer was kept at physiological temperature (37 °C).

Method for rat ileal segments: as §1
For the trial with the highest concentration of L-tryptophan (50 mM), L-arginine (40 mM) was added as a solubilizing agent. For this test, 5% sodium taurodeoxycholate was used as a positive control. At 60 min after administration, the ileal loop was washed with 5.0 mL of PBS and then intestinal fluid was collected. After adjusting the collected intestinal fluid to a total volume of 6.0 mL with PBS, the activity of LDH (Unit) leaked into the intestinal fluid was determined using an LDH kit (Promega Corp.).

Regarding `CCCCCCCCCC(=O)[O-].[Na+]` [C10, sodium caprate], the “Change in TEER of Caco-2 cell monolayers” value in the data set with Caco-2 cell monolayers [1] (typical enhancer as positive control, concentration not given, 2 h) is on record as “significant reduction in TEER”.
With `N[C@@H](Cc1c[nH]c2ccccc12)C(=O)O` [L-Tryptophan, L-tryptophan], the “Leakage of LDH into intestinal fluid (in situ)” value in the data set on rat ileal segments was “negligible”. Moreover, the “Release of LDH into the media (in vitro)” value with Caco-2 cells [2] is on record as “no release of LDH”. In the data set with Caco-2 cells [3], the “Cell viability (WST-8)” value is given as “no decrease in cell viability”. In addition, in the data set on Caco-2 cell monolayers [1] (apical, insulin 15 μM with additive 600–16,000 μM, HBSS pH 7.4, 2 h, TEER at 120 min vs initial), the “Change in TEER of Caco-2 cell monolayers” value was “No change in the TEER values”. The “Binding to immobilized insulin (SPR sensorgram)” value on insulin (CM5 chip, analyte 2–200 μM, HBSS pH 7.4 with 0.001% MC, 25 °C, 90 s injection) is “do not show an increase”. Moreover, the “Hypoglycemic reaction / oral absorption of insulin (blood glucose levels)” value in data set [4] is “could enhance the oral absorption of insulin”.
Consider `N=C(N)NCCC[C@H](N)C(=O)O` [L-arginine], for which, in data set [5] (data not shown), the “Effect on the intestinal absorption of peptide drugs (GLP-1, Exendin-4)” value was “had no effect on the intestinal absorption of such peptide drugs”. The Binding with insulin entry on insulin (data not shown) is “showed no binding with insulin”. The “Tmax of insulin absorption after co-administration” value in [6] is given as 12.8 ± 0.9 min. In addition, the “Opening of tight junctions in Caco-2 cell monolayers” value in the data set on Caco-2 cell monolayers [7] is listed as “no opening of tight junctions was observed”.
As to `CC[C@H](C)[C@H](N)C(=O)O` [L-isoleucine], in [8], the “Effect on the intestinal absorption of insulin (in words)” value (“Effect … (in words)” below) was “no stimulatory effect on insulin absorption”.
For `N[C@@H](Cc1ccccc1)C(=O)O` [L-phenylalanine], the “Effect … (in words)” value in [8] is reported as “no stimulatory effect on insulin absorption”.
The same measure, in the same setting: then `O=C(O)[C@@H]1CCCN1` [L-proline], with “no stimulatory effect on insulin absorption”.
As for `NCCc1c[nH]c2ccc(O)cc12` [Serotonin, serotonin], the “Effect … (in words)” value in [8] is listed as “could enhance the intestinal absorption of insulin”. In addition, the “Change in TEER of Caco-2 cell monolayers” value in the data set with Caco-2 cell monolayers [1] (apical, insulin 15 μM with additive 2.4 or 16 mM, HBSS pH 7.4, 2 h) is given as “increased the TEER”. Moreover, the “Permeation of insulin through Caco-2 monolayer” value with Caco-2 cell monolayers [9] is reported as “no stimulatory effect on the permeation of insulin”.
Take GLP-1: the “AUC, −L-Tryptophan” value in [5] (rat, in vivo, 1.25 mg/kg) amounted to 1.35 ± 0.27 ng·h/mL.
For RQIKIWFQNRRMKWKK [L-penetratin], the “Onset of action / of insulin absorption after co-administration” value in data set [8] (insulin 50 IU/kg co-administered with L-tryptophan 8-32 mM, L-penetratin 0.5 mM or D-tryptophan 16 and 32 mM, time after administration) came to 15 min.

The values above are taken from PMC6321321 (Pharmaceutics, 2018).
